Measurements taken from publication PMC4013357 (The Journal of Veterinary Medical Science, 2013).

Molecular target: T1, rBboDHODH (Babesia bovis dihydroorotate dehydrogenase) (Babesia bovis, UniProt A7AUQ8)
T1 sequence (A7AUQ8 1-415): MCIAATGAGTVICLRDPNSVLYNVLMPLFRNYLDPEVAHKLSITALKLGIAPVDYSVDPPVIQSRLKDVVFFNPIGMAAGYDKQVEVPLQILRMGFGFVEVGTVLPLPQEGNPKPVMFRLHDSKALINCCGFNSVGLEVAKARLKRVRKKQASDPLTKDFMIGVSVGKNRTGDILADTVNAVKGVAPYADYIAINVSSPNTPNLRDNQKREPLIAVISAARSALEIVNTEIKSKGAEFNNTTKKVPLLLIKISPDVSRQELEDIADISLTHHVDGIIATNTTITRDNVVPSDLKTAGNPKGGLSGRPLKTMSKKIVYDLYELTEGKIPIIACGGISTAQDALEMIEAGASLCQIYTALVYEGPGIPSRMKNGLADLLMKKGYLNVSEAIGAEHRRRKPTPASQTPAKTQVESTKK
Assay: biochemical
Conditions: read-out: Relative activity (%)

SMILES | activity at 1 µM | activity at 1000 µM
O=C1C(O)=C([C@H]2CC[C@H](c3ccc(Cl)cc3)CC2)C(=O)c2ccccc21 [ATV, atovaquone] | 19.1% | –
Cc1oncc1C(=O)Nc1ccc(C(F)(F)F)cc1 [LFN, leflunomide] | – | 51.6%
